Drawing on ChEMBL document CHEMBL1155587, “Spasmolytic constituents from Eucalyptus camaldulensis var. obtusa leaves” (2000), this text covers Ratio for two compounds.

In test [1] the test system is Jejunum. Nature of the test: Spasmolytic activity in rabbit jejunum assessed as relaxation of K+-induced muscle contraction at 30 ug/ml relative to calcium. Format: functional, Oryctolagus cuniculus.
Test [2] relates to Jejunum. Nature of the test: Spasmolytic activity in rabbit jejunum assessed as relaxation of K+-induced muscle contraction at 10 ug/ml relative to calcium. It is filed as functional, Oryctolagus cuniculus.

Consider `C[C@H]1[C@H](C)CC[C@@]23CC[C@]4(C)[C@@](C=C[C@@H]5[C@@]6(C)CC[C@H](OC=O)C(C)(C)[C@@H]6CC[C@]54C)(OC2=O)[C@H]13` [CAMALDULIN], for which the Ratio in test [1] stood at 3.47; in test [2], 2.03.

Turning to `CC(=O)O[C@H]1CC[C@]2(C)[C@H]3C=C[C@]45OC(=O)[C@@]6(CC[C@@H](C)[C@H](C)[C@H]64)CC[C@@]5(C)[C@]3(C)CC[C@H]2C1(C)C`, the Ratio in test [1] is on record as 17.51; in test [2] it was 6.2.
